Test results as given in patent US5079237A, “Inclusion complex of nicardipine or its hydrochloride with beta-cyclodextrin and a sustained release pharmaceutical preparation containing the same” (priority 1988, dated 1992).
Counter-ions that a name gives are not always drawn.

How the values were obtained:
[1] = cited from earlier work
[2] = known from DE patent 24 07 115; cited from earlier work
[3] = Differential scanning calorimetry: thermal stability (Example 4); assay type: physicochemical; details: DSC
Protocol: Nicardipine hydrochloride melts at 160° C., its thermal decomposition beginning at about 200° C. Beta-cyclodextrin contains combined water, which begins to separate off the sample already at about 40° C. The dehydratation of beta-cyclodextrin is completed at about 100° C. Anhydrous beta-cyclodextrin is stable up to 270° C., when thermal decomposition starts, which becomes intensive at 300° C. The behaviour of the inclusion complex of nicardipine hydrochloride with beta-cyclodextrin at the thermoanalytical assay is quite different. After the initial slight loss of weight at temperatures below 150° C., which can be attributed to the adsorbed moisture, the substance is stable up to about 220° C, when thermal decomposition sets in. […] The DSC scans of nicardipine hydrochloride, beta-cyclodextrin, the physical mixture of nicardipine hydrochloride and beta-cyclodextrin and of the inclusion complex of nicardipine hydrochloride with beta-cyclodextrin clearly indicate the formation of the inclusion complex of nicardipine hydrochloride with beta-cyclodextrin. Thus, the differential scanning calorimetry measurements are in accordance with the powder X-ray diffraction patterns.

[4] = Solubility in water of nicardipine (hydrochloride), complexed and non-complexed (Example 3); assay type: physicochemical; details: room temperature, saturated solution
Protocol: Solubility in water Comparative solubility of nicardipine and its hydrochloride resp. alone and of its inclusion complex with beta-cyclodextrin. The concentrations of the dissolved nicardipine and its hydrochloride resp. at room temperature were determined in clear filtrates of the saturated solutions by liquid chromatography using the external standard method.

[5] = Dissolution rate in artificial biological fluids, Paddle Method, USP XXI (Example 5); assay type: physicochemical; details: for % dissolution: 37° C., mean of three tests
Protocol: Dissolution rates of the complexed and the non-complexed nicardipine and its hydrochloride
40 mg of nicardipine hydrochloride or the equivalent amount of […] of the inclusion complex of nicardipine with beta-cyclodextrin were used.
The dissolution tests were performed in artificial gastric juice of pH 1.2 and in artificial intestinal juices of pH 6.0, 6.5 and 7.4 at the temperature of 37° C.±0.5° C. The volume of the artificial biological fluids was 1000 ml. The rotation speed of the paddle mixer was 100 rpm. The quantities of the dissolved nicardipine hydrochloride in the test samples were determined spectrophotometrically (λmax =240 nm).

rats = assay: Acute toxicity (LD50) in rats after p.o. administration (Example 6); assay type: in vivo; details: rats, p.o.; for LD50 after 15 days: Litchfield-Wilcoxon, 21600 min
Protocol: (§1) In toxicological tests acute toxicities (LD50) of nicardipine hydrochloride and of its inclusion complex with beta-cyclodextrin were determined in mice and rats. The complex contained 26.8% of nicardipine hydrochloride.
(§2) Albino laboratory mice weighing 18 to 24 g and rats weighing 180 to 240 g of both sexes were used. Nicardipine hydrochloride was administered in the following doses:
(§3) The volume of the administered suspension was in mice 0.2 to 0.4 ml/20 g of body weight and in rats 0.8 to 2.4 ml/200 g of body weight.
(§4) The inclusion complex of nicardipine hydrochloride with beta-cyclodextrin was administered in the following doses:
(§5) rats: 5000 mg/kg of body weight, corresponding to
(§6) 1340 mg of nicardipine/kg of body weight,
(§7) 11100 mg/kg of body weight, corresponding to
(§8) 2975 mg of nicardipine/kg of body weight,
(§9) 18500 mg/kg of body weight, corresponding to
(§10) 4958 mg of nicardipine/kg of body weight.
(§11) The volume of the administered suspension was in mice 0.6 ml/20 g of body weight and in rats 1.2 to 4.4 ml/200 g of body weight. The animals were left without food for 18 hours before the administration. After the administration the animals were put under observation and the symptoms of poisoning or behaviour changes were recorded for another 15 days. During the tests the animals were given food and water ad libitum.
(§12) The results were statistically evaluated according to the Litchfield-Wilcoxon method (J. Pharmacol. Exp. Therap. 96, 99 (1949)).

[6] = as above; assay type: in vivo; details: rat, in vivo, po; for mortality at 24 h: read-out: % of perished animals after 24 hrs; for mortality at 360 h: read-out: % of perished animals after 15 days; for LD50 at 360 h: rats, p.o., Litchfield-Wilcoxon, read-out: LD50 after 15 days
Protocol: as §1, §2, §3, §4, §5, §6, §7, §8, §9, §10, §11, §12

mice = assay: Acute toxicity (LD50) in mice after p.o. administration (Example 6); assay type: in vivo; details: mice, p.o.; for LD50 after 15 days: Litchfield-Wilcoxon, 21600 min
Protocol: as §1, §2, §3, §4
(§13) mice: 18500 mg/kg of body weight, corresponding to
(§14) 4958 mg of nicardipine/kg of body weight;
as §11, §12

[7] = as above; assay type: in vivo; details: mouse, in vivo, po; for mortality at 24 h: read-out: % of perished animals after 24 hrs; for mortality at 360 h: read-out: % of perished animals after 15 days; for LD50 at 360 h: mice, p.o., Litchfield-Wilcoxon, read-out: LD50 after 15 days
Protocol: as §1, §2, §3, §4, §13, §14, §11, §12

[8] = 2000 mg/kg, rats M, 2000 mg/kg p.o.
[9] = 2500 mg/kg, rats M, 2500 mg/kg p.o.
[10] = 3000 mg/kg, rats F, 3000 mg/kg p.o.
[11] = 3500 mg/kg, rats M, 3500 mg/kg p.o.
[12] = 4000 mg/kg, rats F, 4000 mg/kg p.o.
[13] = 5000 mg/kg, rats F, 5000 mg/kg p.o.
[14] = 5000 mg/kg, rats M, 5000 mg/kg p.o.
[15] = 6000 mg/kg, rats F, 6000 mg/kg p.o.
[16] = 1500 mg/kg, mice F, 1500 mg/kg p.o.
[17] = 1500 mg/kg, mice M, 1500 mg/kg p.o.
[18] = 3000 mg/kg, mice F, 3000 mg/kg p.o.
[19] = 3000 mg/kg, mice M, 3000 mg/kg p.o.
[20] = 4000 mg/kg, mice F, 4000 mg/kg p.o.
[21] = 5000 mg/kg, mice F, 5000 mg/kg p.o.
[22] = 5000 mg/kg, mice M, 5000 mg/kg p.o.
[23] = 6000 mg/kg, mice F, 6000 mg/kg p.o.
[24] = 6000 mg/kg, mice M, 6000 mg/kg p.o.

Q: Which “solubility in biological fluids” value ([1]; pH of 5 to 8) does the source give for `COC(=O)C1=C(C)NC(C)=C(C(=O)OCCN(C)Cc2ccccc2)C1c1cccc([N+](=O)[O-])c1` (stereo not shown) [nicardipine, 2-(N-benzyl-N-methylamino)-ethyl methyl 2,6-dimethyl-4-(m-nitrophenyl)-1,4-dihydropyridine-3,5-dicarboxylate] here?
A: poor solubility

Q: What about the water solubility ([1]; water) of the same compound?
A: unsatisfactory

Q: And the toxicity [2]?
A: low toxicity

Q: With `OC[C@H]1O[C@@H]2O[C@H]3[C@H](O)[C@@H](O)[C@@H](O[C@H]4[C@H](O)[C@@H](O)[C@@H](O[C@H]5[C@H](O)[C@@H](O)[C@@H](O[C@H]6[C@H](O)[C@@H](O)[C@@H](O[C@H]7[C@H](O)[C@@H](O)[C@@H](O[C@H]8[C@H](O)[C@@H](O)[C@@H](O[C@H]1[C@H](O)[C@H]2O)O[C@@H]8CO)O[C@@H]7CO)O[C@@H]6CO)O[C@@H]5CO)O[C@@H]4CO)O[C@@H]3CO` [beta-cyclodextrin] as the compound, how does the “onset of thermal decomposition (stable up to)” value [3] read?
A: 270 °C

Q: And the “temperature at which thermal decomposition becomes intensive” value ([3]; anhydrous)?
A: 300 °C

Q: For `COC(=O)C1=C(C)NC(C)=C(C(=O)OCCN(C)Cc2ccccc2)C1c1cccc([N+](=O)[O-])c1` (stereo not shown) [nicardipine hydrochloride], which solubility [4] is on record?
A: 1500 µg/mL

Q: What about the “onset of thermal decomposition (stable up to)” value [3] of the same compound?
A: about 200 °C

Q: What about the “dissolution, in words” value ([5]; gastric juice) of the same compound?
A: dissolves quickly and completely

Q: And the “% dissolution” value ([5]; gastric juice, pH 1.2, 10 min)?
A: 93.5%

Q: What about the “% dissolution” value ([5]; gastric juice, pH 1.2, 30 min) of the same compound?
A: 100.2%

Q: What about the “% dissolution” value ([5]; intestinal juice, pH 6.0, 10 min) of the same compound?
A: 50.2%

Q: And the “% dissolution” value ([5]; intestinal juice, pH 6.0, 30 min)?
A: 58.7%

Q: What about the “% dissolution” value ([5]; intestinal juice, pH 6.5, 10 min) of the same compound?
A: 35.5%

Q: What about the “% dissolution” value ([5]; intestinal juice, pH 6.5, 30 min) of the same compound?
A: 39.0%

Q: What about the “% dissolution” value ([5]; intestinal juice, pH 7.4, 10 min) of the same compound?
A: 1.0%

Q: And the “% dissolution” value ([5]; intestinal juice, pH 7.4, 30 min)?
A: 1.3%

Q: What about the “LD50 after 15 days” value (rats; F) of the same compound?
A: 4791 (4206-5458) mg/kg

Q: And the “LD50 after 15 days” value (rats; M)?
A: 2900 (1635-5143) mg/kg

Q: And the recovery of animals (rats)?
A: recovered after 24 hours

Q: What about the symptoms of poisoning (rats) of the same compound?
A: dyspnoea and paresis

Q: And the mortality at 24 h [6, 8]?
A: 40%

Q: What about the mortality at 360 h [6, 8] of the same compound?
A: 40%

Q: What about the mortality at 24 h [6, 9] of the same compound?
A: 40%

Q: And the mortality at 360 h [6, 9]?
A: 40%

Q: And the mortality at 24 h [6, 10]?
A: 0%

Q: What about the mortality at 360 h [6, 10] of the same compound?
A: 0%

Q: And the mortality at 24 h [6, 11]?
A: 60%

Q: And the mortality at 360 h [6, 11]?
A: 60%

Q: And the mortality at 24 h [6, 12]?
A: 10%

Q: What about the mortality at 360 h [6, 12] of the same compound?
A: 20%

Q: And the mortality at 24 h [6, 13]?
A: 44.4%

Q: And the mortality at 360 h [6, 13]?
A: 66.6%

Q: And the mortality at 24 h [6, 14]?
A: 80%

Q: What about the mortality at 360 h [6, 14] of the same compound?
A: 80%

Q: And the mortality at 24 h [6, 15]?
A: 80%

Q: What about the mortality at 360 h [6, 15] of the same compound?
A: 80%

Q: What about the LD50 at 360 h ([6]; F) of the same compound?
A: 4790 mg/kg

Q: What about the LD50 at 360 h ([6]; M) of the same compound?
A: 2900 mg/kg

Q: What about the “solubility at higher pH values” ([1]; higher pH values) of the same compound?
A: very poor

Q: What about the “solubility at low pH values” ([1]; low pH values) of the same compound?
A: good

Q: And the “LD50 after 15 days” value (mice; F)?
A: 3639 (2637-5022) mg/kg

Q: What about the “LD50 after 15 days” value (mice; M) of the same compound?
A: 3756 (2815-5012) mg/kg

Q: And the recovery of animals (mice)?
A: recovered after 24 hours

Q: And the symptoms of poisoning (mice)?
A: dyspnoea and paresis

Q: And the mortality at 24 h [7, 16]?
A: 20%

Q: And the mortality at 360 h [7, 16]?
A: 20%

Q: And the mortality at 24 h [7, 17]?
A: 0%

Q: What about the mortality at 360 h [7, 17] of the same compound?
A: 0%

Q: What about the mortality at 24 h [7, 18] of the same compound?
A: 40%

Q: What about the mortality at 360 h [7, 18] of the same compound?
A: 40%

Q: What about the mortality at 24 h [7, 19] of the same compound?
A: 30%

Q: And the mortality at 360 h [7, 19]?
A: 40%

Q: And the mortality at 24 h [7, 20]?
A: 30%

Q: And the mortality at 360 h [7, 20]?
A: 50%

Q: What about the mortality at 24 h [7, 21] of the same compound?
A: 40%

Q: And the mortality at 360 h [7, 21]?
A: 70%

Q: What about the mortality at 24 h [7, 22] of the same compound?
A: 40%

Q: What about the mortality at 360 h [7, 22] of the same compound?
A: 70%

Q: What about the mortality at 24 h [7, 23] of the same compound?
A: 90%

Q: And the mortality at 360 h [7, 23]?
A: 90%

Q: What about the mortality at 24 h [7, 24] of the same compound?
A: 90%

Q: And the mortality at 360 h [7, 24]?
A: 100%

Q: And the LD50 at 360 h ([7]; F)?
A: 3640 mg/kg

Q: And the LD50 at 360 h ([7]; M)?
A: 3760 mg/kg
